Laboratory results published in US20190328828A1, “PHARMACEUTICAL COMPOSITION, PROCESS FOR PRODUCING THE SAME, USE OF A PEPTIDE, USE OF A PHARMACEUTICAL COMPOSITION AND METHOD FOR TREATING DISEASES ASSOCIATED WITH INTRAOCULAR HYPERTENSION OR GLAUCOMA” (UNIAO QUIMICA FARMACEUTICA NACIONAL S/A, priority 2017, published 2019).

Tests used:
[1] = system: rats; conditions: free (non-encapsulated) peptide, RVLB microinjection, 25-50 ng, previous studies; cited from earlier work
[2] = Long-term and accelerated stability study of raw material; assay type: physicochemical
Protocol: Stability is defined as the time during which pharmaceutical expertise or even raw material considered alone is maintained within specified limits and throughout the period of storage and use, the same conditions and characteristics that had upon the time of their manufacture.
Stability study was carried out in two conditions, the condition A being at 5° C.±3° C. with no humidity and condition B 25° C.±2° C. with the relative humidity of 60%±5%.

[3] = Protocol: The absorption and biological stability tests were performed with solutions of the peptide-cyclodextrin inclusion compound. To carry out the experiments, 12 normal Wistar rats were used, which had previously cannulated the left femoral artery. […] Four blood draws (1 mL) were carried out, being the first prior to gavage, and the three others within 2, 6 and 24 hours after gavage
[4] = target: ACE (Homo sapiens, UniProt P12821); conditions: read-out: IC50 for inhibiting ACE; cited from earlier work
[5] = system: patients; conditions: patients treated chronically; cited from earlier work
[6] = system: ganglion cells; conditions: rat retina explant model, White et al (2015); cited from earlier work

Chain of ACE (P12821 30-1306, species assumed): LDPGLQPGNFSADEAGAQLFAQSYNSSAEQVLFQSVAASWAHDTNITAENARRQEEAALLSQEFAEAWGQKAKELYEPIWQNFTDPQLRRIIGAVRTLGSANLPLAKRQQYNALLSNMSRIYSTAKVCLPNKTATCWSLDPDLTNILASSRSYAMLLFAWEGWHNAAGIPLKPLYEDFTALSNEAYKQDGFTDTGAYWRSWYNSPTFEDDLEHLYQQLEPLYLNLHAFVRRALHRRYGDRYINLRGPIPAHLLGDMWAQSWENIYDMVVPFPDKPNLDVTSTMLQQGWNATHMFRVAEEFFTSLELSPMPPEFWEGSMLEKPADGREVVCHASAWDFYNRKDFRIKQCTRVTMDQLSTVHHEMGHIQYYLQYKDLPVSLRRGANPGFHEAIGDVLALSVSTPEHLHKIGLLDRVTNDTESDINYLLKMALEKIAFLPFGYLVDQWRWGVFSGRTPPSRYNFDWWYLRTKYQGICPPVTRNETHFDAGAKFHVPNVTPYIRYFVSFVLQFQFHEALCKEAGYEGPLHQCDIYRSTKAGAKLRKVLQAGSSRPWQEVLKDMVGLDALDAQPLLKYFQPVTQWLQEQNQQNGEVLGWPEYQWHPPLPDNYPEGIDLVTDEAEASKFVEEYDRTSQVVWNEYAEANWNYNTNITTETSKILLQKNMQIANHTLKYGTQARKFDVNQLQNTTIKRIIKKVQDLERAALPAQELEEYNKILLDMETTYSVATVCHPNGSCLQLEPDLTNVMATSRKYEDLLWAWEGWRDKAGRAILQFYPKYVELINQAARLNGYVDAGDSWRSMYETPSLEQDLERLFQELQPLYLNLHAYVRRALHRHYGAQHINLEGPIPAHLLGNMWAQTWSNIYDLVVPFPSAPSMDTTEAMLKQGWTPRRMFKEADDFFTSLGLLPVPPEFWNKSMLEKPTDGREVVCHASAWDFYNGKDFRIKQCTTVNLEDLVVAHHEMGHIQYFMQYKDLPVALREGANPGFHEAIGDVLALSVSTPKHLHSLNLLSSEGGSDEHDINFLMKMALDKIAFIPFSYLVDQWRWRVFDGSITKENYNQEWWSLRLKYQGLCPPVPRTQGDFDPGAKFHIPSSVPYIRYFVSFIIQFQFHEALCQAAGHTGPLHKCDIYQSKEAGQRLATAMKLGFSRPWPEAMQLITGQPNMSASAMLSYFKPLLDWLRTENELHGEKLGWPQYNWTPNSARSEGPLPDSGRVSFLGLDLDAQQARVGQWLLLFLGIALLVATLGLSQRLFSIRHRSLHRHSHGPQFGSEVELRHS

Compound: CC[C@H](C)[C@H](NC(=O)[C@H](Cc1ccc(O)cc1)NC(=O)[C@@H](NC(=O)[C@H](CCCNC(=N)N)NC(=O)[C@@H](N)CC(=O)O)C(C)C)C(=O)N[C@@H](Cc1c[nH]cn1)C(=O)N1CCC[C@H]1C(=O)O [SEQ ID NO: 1, Asp-Arg-Val-Tyr-Ile-His-Pro]
- duration of pressor effect [1]: approximately 10 min
- increase in arterial pressure [1]: 15 mmHg
- time for which the raw material is stable, long-term condition ([2]; 5° C.±3° C., no humidity): 36 months
- time for which the raw material is stable, accelerated condition ([2]; 25° C.±2° C., 60% relative humidity): 6 months
- increase in plasma concentration, times less than with SEQ ID NO: 1 βcyclodextrin ([3]; 6 hours after gavage): about 8 times
- level at 6 h ([3]; rat, in vivo, po, 10 ug/50 ul): 0.086 ± 0.013 ng/mL
- IC50 [4]: ~1 µM

Compound: CCOC(=O)[C@H](CCc1ccccc1)N[C@@H](C)C(=O)N1CCC[C@H]1C(=O)O [enalapril]
- reduction of the risk of dementia [5]: 55%

Compound: CCCCC1=NC2(CCCC2)C(=O)N1Cc1ccc(-c2ccccc2-c2nnn[nH]2)cc1 [irbesartan]
- survival of ganglion cells [6]: doubled

Compound: CCC[C@H](N[C@@H](C)C(=O)N1[C@H](C(=O)O)C[C@@H]2CCCC[C@@H]21)C(=O)OCC [perindopril]
- reduction of the risk of dementia [5]: 34%

Compound: Angiotensin II
- reduction of survival of ganglion cells [6]: 40%
